Measurements taken from patent US20250312336A1, “Compositions And Methods For Treating Cancer With Calcium Channel Inhibitors” (Institute for Cancer Research d/b/a The Research Institute …, priority 2024, published 2025).
Entries after “also recorded” stand apart in the source; their conditions may differ.

Legend:
Panc-1 cells = assay: Viability of Panc-1 cells under HDL receptor blockade; type: cell-based, human; conditions: HDL receptor inhibitor, LDS
Method: For direct enumeration of viable cells in co-cultures with CAFs, we seeded CAFs at 12,000 cells per well in 96-well plate (#3603, Corning) in DMEM/10% FBS. The next day, the media was replaced with 10%/LDS/DMEM and 4,000 DsRed-tagged Panc-1 cells were plated on the top of CAFs at 3:1 ratio. After 96 hours, fluorescence of viable DsRed-positive Panc-1 cells was measured using Spark Multimode Microplate Reader (Tecan) with parameters set at 540 nm for excitation and 590 nm for detection. To measure the dynamics of cell proliferation in vitro, we used xCELLigence E-Plate (ACEA BioSciences,) as per the manufacturer's recommended protocol. Impedance values were recorded every hour. Data was graphed using GraphPad Prism software.

KPC3 pancreatic tumors = assay: Orthotopic syngeneic KPC3 pancreatic tumor growth; type: in vivo, mouse; conditions: oral gavage 5 days/week for 3 weeks; niclosamide 150 mg/kg, clofazimine 50 mg/kg
Method: Syngeneic 5×10^5 KPC3 cells were injected into the tail of pancreas of anesthetized C57B1/6J mice. […] Mice were kept under defined-flora pathogen-free conditions at the AAALAC-approved Animal Facility of the Fox Chase Cancer Center, Philadelphia, PA. Mice of both genders, equally distributed, were used for the experiments.

ANO6 [1] = molecular target: T1, ANO6 (Homo sapiens, UniProt Q4KMQ2); assay: PtdSer externalization (annexin XII) in CAFs co-cultured with DsRed-tagged Panc-1 cells; type: cell-based; design: this increase was observed only in control CAFs (ANO6-proficient) engaged in physical contacts with DsRed-tagged Panc-1 cells; endogenous in cells; host or cells: human CAFs in co-culture with DsRed-tagged Panc-1 cells; conditions: BTP2 10 μM; clofazimine 1 μM; niclosamide
T1 sequence (Q4KMQ2 1-910): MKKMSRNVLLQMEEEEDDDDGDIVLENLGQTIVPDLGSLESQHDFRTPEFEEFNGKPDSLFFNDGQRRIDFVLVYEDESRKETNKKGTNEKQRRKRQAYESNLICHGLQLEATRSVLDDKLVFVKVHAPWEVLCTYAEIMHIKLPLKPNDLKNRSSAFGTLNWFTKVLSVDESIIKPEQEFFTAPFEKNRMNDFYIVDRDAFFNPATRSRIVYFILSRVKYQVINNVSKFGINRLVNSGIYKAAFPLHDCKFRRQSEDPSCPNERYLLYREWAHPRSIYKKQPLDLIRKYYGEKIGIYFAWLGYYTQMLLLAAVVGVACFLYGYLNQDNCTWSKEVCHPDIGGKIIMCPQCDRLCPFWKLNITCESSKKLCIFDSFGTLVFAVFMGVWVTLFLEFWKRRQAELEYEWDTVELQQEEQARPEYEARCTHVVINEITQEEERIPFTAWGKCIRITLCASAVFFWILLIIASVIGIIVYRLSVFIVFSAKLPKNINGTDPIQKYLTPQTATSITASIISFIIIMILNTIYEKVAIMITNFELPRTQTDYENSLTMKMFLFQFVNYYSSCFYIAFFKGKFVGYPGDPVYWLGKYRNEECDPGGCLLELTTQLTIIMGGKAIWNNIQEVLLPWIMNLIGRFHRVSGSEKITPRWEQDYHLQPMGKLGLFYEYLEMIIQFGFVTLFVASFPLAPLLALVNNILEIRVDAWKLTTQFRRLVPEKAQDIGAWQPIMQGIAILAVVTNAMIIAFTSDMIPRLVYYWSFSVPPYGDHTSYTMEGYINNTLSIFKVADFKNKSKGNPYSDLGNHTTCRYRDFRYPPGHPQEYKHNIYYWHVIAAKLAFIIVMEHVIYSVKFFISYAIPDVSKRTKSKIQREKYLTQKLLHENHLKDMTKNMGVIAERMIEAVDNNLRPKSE
Method: (§1) CAFs were seeded in 24-well glass bottom plates (cat. #81156, Ibidi, Fitchburg, WI) at a density of 20,000 cells per well. Cells were then treated with niclosamide (1 μM) for 2 h. After one wash with FBS-free media at RT, cells were incubated with 250 μl of 1:100 annexin XII and 1:200 propidium iodide (pSIVA Abcam #ab129817), with or without 10 μM ionomycin. Cells were then incubated (5 min 37C) and imaged by fluorescence microscopy using a Nikon A1 camera (Nikon) linked to a Nikon Eclipse Ti2-E Inverted Microscope Imaging System (Nikon) for each channel. Fifteen images per well were acquired.

[2] = test system: PtdSer externalization in KPC tumors; assay: Phosphatidylserine imaging in autochthonous KPC pancreatic tumors; type: in vivo, mouse; conditions: KPC mice
[3] = test system: TMEM16F-dependent syncytia induced by SARS-COV-2; conditions: previous studies; cited from earlier work
OT-1 CTLs = assay: Trogocytosis assay of DiD-labeled CAFs co-cultured with OT-1 CTLs; type: cell-based, mouse; conditions: 12 h co-culture; niclosamide 1 μM, clofazimine 1 μM, anti-TIM3 Ab 4 μg/ml, 25-hydroxycholesterol 4 μM
Method: For trogocytosis between OT-1 and CAF cells, T cells were isolated from splenocytes of OTI mice (strain 021880, The Jackson Laboratory) and stimulated with OVA257-264 (1 μg/ml) for 24 hours as described.
Cholesterol abundance in cell membranes was determined with Cholesterol Detection Assay Kit (Cayman, cat #10009779). Dissociated cells were fixed with fixative solution for 10 minutes, washed and labeled with Filipin III as per the manufacturer's instructions. Labeling with Filipin III was done by incubating in the dark for 30 minutes. After two washes for 5 minutes each, labeling was analyzed by flow cytometry (excitation: 340-380, emission: 385-470). The IFN-γ, Granzyme B and Foxp3 were detected using Foxp3/Transcription Factor Staining Buffer (00-5523-00, Thermo Fisher Scientific). Cells were stained for cell surface markers at 4° C. for 30 min followed by fixation and permeabilization buffer for 30 mins and two washes with permeabilization buffer and incubation with the indicated antibodies for 30 mins, washed with PBS twice followed by flow cytometry analysis.

CAF1 fibroblasts = assay: Western blot of signaling epitopes in CAF1 fibroblast lysates; type: cell-based, human; conditions: band densities relative to vehicle control
Method: Functional fibroblastic cell 3D culture units are needed to ensure the pathophysiological signal reciprocity between fibroblastic cells and self-generated ECM is sustained ex vivo. These units were generated using known methods. Briefly, confluent cultures of human pancreatic fibroblastic cells, harvested from surgical samples and immortalized via hTERT overexpression, were supplemented daily with freshly-prepared ascorbic acid (50 ug/mL) for a period lasting 5 days. The resulting fibroblastic/ECM 3D functional units were used for the phenotypic characterization of the units and to report on the pro-tumor vs. tumor-suppressive (normalized) statuses of the experimental fibroblastic/ECM units. For this, lysates obtained from the assorted units were resolved using SDS-PAGE and traits were gauged via western blot; testing for constitutive integrin and PI3K activities depicted by phosphorylated FAK and AKT respectively. Cultured cells were lysed in RIPA buffer (#24928, Santa Cruz) with phosphatase inhibitor (#1862495, Thermo Fisher Scientific) and protease inhibitors (#1861278, Thermo Fisher Scientific) on ice and cleared by centrifugation (15 min at 17,000 g). The protein concentration was measured with a Pierce BCA Protein Assay Kit (#23225, Thermo Fisher Scientific). […] The density of obtained bands was quantified with Image J software (FIJI).

[4] = test system: DsRed-tagged PDAC KPC3 tumors; assay: Intravital multiphoton imaging of BODIPY-cholesterol LDL uptake in DsRed-tagged KPC3 tumors; type: in vivo, mouse
Method: Mice with established orthotopic tumors roughly 21 days post implantation were anesthetized with 1.5-2% isoflurane/oxygen mixture maintained for the duration of imaging. Pancreatic tumors were exposed through a 1 cm incision on the left flank of the mouse placed on a 35° C. heating pad (Kent Scientific). Intensity thresholds were set up to distinguish signal from background fluorescence, and areas positive for DsRed, indicative of tumor cells, were selected for 3D confocal imaging using a 25× objective in the Leica SP8 Dive multiphoton imaging system (Leica Microsystems), prior to the intravenous administration of 150 μL of LDL carrying BODIPY-cholesterol and at 0.5, 1, 5, 16, and 19-hour interval post injection with XY resolution 0.867 um/px and Z distance 2 μm. For each time interval, 2-3 mice were imaged for 0.5-2 hours under continuous anesthesia. At the end of each imaging session, the animals were euthanized, and tissues were collected. The acquired 3D stacks were analyzed using Imaris 10.0.0 software (Oxford Instruments, UK). […] Mean intensity of cholesterol volume co-localized with tumor volume or volume outside of tumor was measured and ratio inside intensity/outside intensity was calculated. […] The volume of vesicles inside the tumor were expressed as a percentage relative to tumor volume.

ANO6 [5] = molecular target: T1, ANO6; assay: Phosphatidylserine externalization assay in CAFs pulsed with ionomycin (annexin XII); type: cell-based; design: endogenous in cells; host or cells: human patient-derived, hTERT-immortalized pancreatic cancer-associated fibroblasts (CAFs); conditions: niclosamide 1 μM 2 h; ionomycin 5 minutes at 10 μM; annexin XII staining
Method: as §1

CCCCCCC1CCCC1=NNC(N)=S (stereo not shown) [BTL1]
Panc-1 viability (Panc-1 cells): loss of Panc-1 viability

CC(C)/N=c1\cc2n(-c3ccc(Cl)cc3)c3ccccc3nc-2cc1Nc1ccc(Cl)cc1 [clofazimine]
Tumor weights of orthotopic syngeneic KPC3 pancreatic tumors (KPC3 pancreatic tumors): significantly reduced tumor weights
PtdSer externalization (annexin XII) in CAFs co-cultured with Panc-1 cells (ANO6 [1]): suppressed PtdSer externalization; also recorded: blocked
PtdSer externalization in cytokeratin-positive cancer cells and podoplanin-positive CAFs (KL5c betabody) ([2]; two daily doses 50 mg/kg, 50 μg KL5c IV 5 hours prior to sacrifice): blocks PtdSer externalization
PtdSer externalization in KPC tumors (PSVue-794 infrared probe) ([2]; two daily doses 50 mg/kg, probe IV 24 hours prior to sacrifice): blocks PtdSer externalization
Detection of externalized PtdSer in PDAC using two chemically unrelated probes ([2]; two daily doses of clofazimine 50 mg/kg, KL5c betabody and PSVue-794): completely suppressed detection of externalized PtdSer
Formation of TMEM16F-dependent syncytia induced by SARS-COV-2 [3]: block formation
Transfer of DiD (CAF PM uptake) from CAFs to OT-1 CTLs (OT-1 CTLs): notably suppressed the measured transfer

O=C(Nc1ccc([N+](=O)[O-])cc1Cl)c1cc(Cl)ccc1O [niclosamide]
Signaling: expression of indicated protein epitopes in total cellular lysates of unmodified CAF1 fibroblasts (CAF1 fibroblasts): suppresses signaling
Tumor weights of orthotopic syngeneic KPC3 pancreatic tumors (KPC3 pancreatic tumors): significantly reduced tumor weights
PtdSer externalization (annexin XII) in CAFs co-cultured with Panc-1 cells (ANO6 [1]): absence of annexin XII labeling
Cholesterol accumulation in intratumoral vesicles containing BODIPY-cholesterol ([4]; 19 hours post injection): significantly lower accumulation
BODIPY-cholesterol accumulation in DsRed-tagged PDAC KPC3 cells ([4]; niclosamide-treated mice, after intravenous labeled LDL, 10, 16 and 19 hours): suppressed BODIPY-cholesterol accumulation
PtdSer externalization induced by ionomycin in CAFs pre-treated with inhibitor (ANO6 [5]): did not cause externalized PtdSer; also recorded: prevents PtdSer externalization
Formation of TMEM16F-dependent syncytia induced by SARS-COV-2 [3]: block formation
Transfer of DiD (CAF PM uptake) from CAFs to OT-1 CTLs (OT-1 CTLs): notably suppressed the measured transfer
